Measurements published in PubChem BioAssay (NCI).
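Cells were grown in 96-well plates and exposed to each compound for 48 hours at five concentrations; endpoints were interpolated linearly between bracketing concentrations, or set to the highest concentration if not reached. Here, GI50 denotes the concentration required for 50% inhibition of growth. TGI marks complete inhibition of growth.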

Tests used:
Assay in all cases: inhibition of tumour cell growth, NCI panel, 48 h
SF-295 CNS = test system: SF-295 CNS
NCI/ADR-RES ovarian = test system: NCI/ADR-RES ovarian
RXF 393 renal = test system: RXF 393 renal
UACC-62 melanoma = test system: UACC-62 melanoma
MDA-MB-231 breast = test system: MDA-MB-231 breast
SF-268 CNS = test system: SF-268 CNS
CAKI-1 renal = test system: CAKI-1 renal
CCRF-CEM leukemia = test system: CCRF-CEM leukemia
DU-145 prostate = test system: DU-145 prostate
SN12C renal = test system: SN12C renal
EKVX NSCLC = test system: EKVX NSCLC
MALME-3M melanoma = test system: MALME-3M melanoma
HOP-92 NSCLC = test system: HOP-92 NSCLC
A498 renal = test system: A498 renal
UO-31 renal = test system: UO-31 renal
ACHN renal = test system: ACHN renal
SNB-75 CNS = test system: SNB-75 CNS
786-0 renal = test system: 786-0 renal
U251 CNS = test system: U251 CNS
SK-MEL-2 melanoma = test system: SK-MEL-2 melanoma
NCI-H226 lung = test system: NCI-H226 lung
SNB-19 CNS = test system: SNB-19 CNS
HCT-15 colon = test system: HCT-15 colon
HT29 colon = test system: HT29 colon
SR leukemia = test system: SR leukemia
TK-10 renal = test system: TK-10 renal
OVCAR-8 ovarian = test system: OVCAR-8 ovarian
HOP-62 NSCLC = test system: HOP-62 NSCLC
SK-MEL-28 melanoma = test system: SK-MEL-28 melanoma
HCT-116 colon = test system: HCT-116 colon
LOX IMVI melanoma = test system: LOX IMVI melanoma
SF-539 CNS = test system: SF-539 CNS
MDA-MB-435 = test system: MDA-MB-435
BT-549 breast = test system: BT-549 breast
MCF7 breast = test system: MCF7 breast
MOLT-4 leukemia = test system: MOLT-4 leukemia
KM12 colon = test system: KM12 colon
HCC-2998 colon = test system: HCC-2998 colon
OVCAR-3 ovarian = test system: OVCAR-3 ovarian
NCI-H460 lung = test system: NCI-H460 lung
OVCAR-4 ovarian = test system: OVCAR-4 ovarian
NCI-H522 lung = test system: NCI-H522 lung
A549 NSCLC = test system: A549 NSCLC
SK-MEL-5 melanoma = test system: SK-MEL-5 melanoma
UACC-257 melanoma = test system: UACC-257 melanoma
K-562 leukemia = test system: K-562 leukemia
HL-60(TB) leukemia = test system: HL-60(TB) leukemia
COLO 205 colon = test system: COLO 205 colon
SK-OV-3 ovarian = test system: SK-OV-3 ovarian
NCI-H23 lung = test system: NCI-H23 lung
M14 melanoma = test system: M14 melanoma

Compound `CCCCCCNC(=O)Nc1ccc2cc3ccc(NC(=O)NCCCCCC)cc3nc2c1` has a GI50 (SF-295 CNS) of 2.32 µM, a TGI (SF-295 CNS) of 6.04 µM and a GI50 (NCI/ADR-RES ovarian) of 83.7 µM. The TGI (NCI/ADR-RES ovarian) was > 100 µM, the GI50 (RXF 393 renal) was 1.4 µM and the TGI (RXF 393 renal) was 5.51 µM. The GI50 (UACC-62 melanoma) was 1.21 µM, the TGI (UACC-62 melanoma) was 2.53 µM and the GI50 (MDA-MB-231 breast) was 1.54 µM. It also gave a TGI (MDA-MB-231 breast) of 3.11 µM, a GI50 (SF-268 CNS) of 1.2 µM and a TGI (SF-268 CNS) of 2.96 µM. For the same compound, the GI50 (CAKI-1 renal) was > 26.5 µM, the TGI (CAKI-1 renal) was > 100 µM and the GI50 (CCRF-CEM leukemia) was 0.258 µM. For the same compound, the TGI (CCRF-CEM leukemia) was 0.714 µM, the GI50 (DU-145 prostate) was 2 µM and the TGI (DU-145 prostate) was > 100 µM. The GI50 (SN12C renal) was 1.08 µM, the TGI (SN12C renal) was 2.51 µM and the GI50 (EKVX NSCLC) was 5.79 µM. The TGI (EKVX NSCLC) was > 100 µM, the GI50 (MALME-3M melanoma) was 1.63 µM and the TGI (MALME-3M melanoma) was 3.12 µM. The GI50 (HOP-92 NSCLC) was 1.67 µM, the TGI (HOP-92 NSCLC) was 4.07 µM and the GI50 (A498 renal) was 1.88 µM. The TGI (A498 renal) was > 28.7 µM, the GI50 (UO-31 renal) was > 100 µM and the TGI (UO-31 renal) was > 100 µM. For the same compound, the GI50 (ACHN renal) was 43.5 µM, the TGI (ACHN renal) was > 100 µM and the GI50 (SNB-75 CNS) was 1.45 µM. For the same compound, the TGI (SNB-75 CNS) was 3.16 µM, the GI50 (786-0 renal) was 2.52 µM and the TGI (786-0 renal) was > 26.6 µM. The GI50 (U251 CNS) was 0.336 µM, the TGI (U251 CNS) was 1.29 µM and the GI50 (SK-MEL-2 melanoma) was 1.9 µM. For the same compound, the TGI (SK-MEL-2 melanoma) was 4.01 µM, the GI50 (NCI-H226 lung) was 4.95 µM and the TGI (NCI-H226 lung) was > 100 µM. For the same compound, the GI50 (SNB-19 CNS) was 1.73 µM, the TGI (SNB-19 CNS) was 3.36 µM and the GI50 (HCT-15 colon) was > 100 µM. For the same compound, the TGI (HCT-15 colon) was > 100 µM, the GI50 (HT29 colon) was 2.24 µM and the TGI (HT29 colon) was > 100 µM. It also gave a GI50 (SR leukemia) of 0.284 µM, a TGI (SR leukemia) of 1.27 µM and a GI50 (TK-10 renal) of 23.5 µM. The TGI (TK-10 renal) was > 100 µM, the GI50 (OVCAR-8 ovarian) was 0.614 µM and the TGI (OVCAR-8 ovarian) was 2.88 µM. For the same compound, the GI50 (HOP-62 NSCLC) was 1.81 µM, the TGI (HOP-62 NSCLC) was 4.88 µM and the GI50 (SK-MEL-28 melanoma) was 1.72 µM. It also gave a TGI (SK-MEL-28 melanoma) of 3.14 µM, a GI50 (HCT-116 colon) of 0.358 µM and a TGI (HCT-116 colon) of 1.25 µM. The GI50 (LOX IMVI melanoma) was 0.268 µM, the TGI (LOX IMVI melanoma) was 0.737 µM and the GI50 (SF-539 CNS) was 1.58 µM. The TGI (SF-539 CNS) was 3 µM, the GI50 (MDA-MB-435) was 0.406 µM and the TGI (MDA-MB-435) was 1.51 µM. The GI50 (BT-549 breast) was 4.09 µM, the TGI (BT-549 breast) was > 100 µM and the GI50 (MCF7 breast) was 0.396 µM. It also gave a TGI (MCF7 breast) of 1.57 µM.

With `CC1(C)C(=O)/C(=C\c2ccccn2)C[C@]2(C)[C@H]3CC[C@@H]4[C@@H](C(=O)/C=C/c5ccccn5)CC[C@@]4(C)[C@]3(C)CC[C@@H]12` the GI50 (NCI/ADR-RES ovarian) was 1.47 µM, the TGI (NCI/ADR-RES ovarian) was 5.93 µM and the GI50 (MOLT-4 leukemia) was 0.537 µM. The TGI (MOLT-4 leukemia) was > 100 µM, the GI50 (RXF 393 renal) was 0.859 µM and the TGI (RXF 393 renal) was 2.26 µM. It also gave a GI50 (KM12 colon) of 1.67 µM, a TGI (KM12 colon) of 3.21 µM and a GI50 (UACC-62 melanoma) of 1.19 µM. For the same compound, the TGI (UACC-62 melanoma) was 2.58 µM, the GI50 (MDA-MB-231 breast) was 0.532 µM and the TGI (MDA-MB-231 breast) was 2.53 µM. It also gave a GI50 (HCC-2998 colon) of 1.8 µM, a TGI (HCC-2998 colon) of 3.49 µM and a GI50 (DU-145 prostate) of 1.76 µM. For the same compound, the TGI (DU-145 prostate) was 3.23 µM, the GI50 (OVCAR-3 ovarian) was 0.538 µM and the TGI (OVCAR-3 ovarian) was 1.85 µM. It also gave a GI50 (A498 renal) of 1.67 µM, a TGI (A498 renal) of 3.11 µM and a GI50 (UO-31 renal) of 0.787 µM. The TGI (UO-31 renal) was 2.1 µM, the GI50 (ACHN renal) was 0.479 µM and the TGI (ACHN renal) was 1.69 µM. It also gave a GI50 (NCI-H460 lung) of 1.97 µM, a TGI (NCI-H460 lung) of 4.2 µM and a GI50 (OVCAR-4 ovarian) of 2.41 µM. For the same compound, the TGI (OVCAR-4 ovarian) was > 100 µM, the GI50 (NCI-H522 lung) was 2.01 µM and the TGI (NCI-H522 lung) was 4.52 µM. It also gave a GI50 (786-0 renal) of 1.2 µM, a TGI (786-0 renal) of 2.77 µM and a GI50 (U251 CNS) of 0.749 µM. For the same compound, the TGI (U251 CNS) was 2.08 µM, the GI50 (A549 NSCLC) was 2.02 µM and the TGI (A549 NSCLC) was > 28.2 µM. For the same compound, the GI50 (SK-MEL-5 melanoma) was 1.51 µM, the TGI (SK-MEL-5 melanoma) was 2.89 µM and the GI50 (NCI-H226 lung) was 1.8 µM. For the same compound, the TGI (NCI-H226 lung) was 4.85 µM, the GI50 (UACC-257 melanoma) was 1.64 µM and the TGI (UACC-257 melanoma) was 5.47 µM. For the same compound, the GI50 (K-562 leukemia) was 0.347 µM, the TGI (K-562 leukemia) was > 100 µM and the GI50 (HT29 colon) was 1.05 µM. It also gave a TGI (HT29 colon) of 3.46 µM, a GI50 (HL-60(TB) leukemia) of 0.486 µM and a TGI (HL-60(TB) leukemia) of 3.95 µM. For the same compound, the GI50 (SR leukemia) was 0.342 µM, the TGI (SR leukemia) was 2.11 µM and the GI50 (OVCAR-8 ovarian) was 0.493 µM. The TGI (OVCAR-8 ovarian) was > 100 µM, the GI50 (HOP-62 NSCLC) was 2.14 µM and the TGI (HOP-62 NSCLC) was 5.82 µM. The GI50 (COLO 205 colon) was 1.76 µM, the TGI (COLO 205 colon) was 4.38 µM and the GI50 (SK-OV-3 ovarian) was 3.89 µM. For the same compound, the TGI (SK-OV-3 ovarian) was > 100 µM, the GI50 (NCI-H23 lung) was 2 µM and the TGI (NCI-H23 lung) was 4.63 µM. For the same compound, the GI50 (HCT-116 colon) was 0.263 µM, the TGI (HCT-116 colon) was 0.795 µM and the GI50 (LOX IMVI melanoma) was 0.232 µM. It also gave a TGI (LOX IMVI melanoma) of 0.565 µM, a GI50 (MDA-MB-435) of 0.296 µM and a TGI (MDA-MB-435) of 0.885 µM. It also gave a GI50 (BT-549 breast) of 1.38 µM, a TGI (BT-549 breast) of 4.26 µM and a GI50 (M14 melanoma) of 0.907 µM. The TGI (M14 melanoma) was 3.14 µM, the GI50 (MCF7 breast) was 0.405 µM and the TGI (MCF7 breast) was 3.89 µM.
